Where two headings read alike, the source gives them in different places.
Assays:
MCF-10A cells = experiment: Cytotoxicity against MCF-10A cells, MTT assay (five doses); assay type: cell-based; conditions: Homo sapiens, MCF-10A normal cells, five dose concentrations, n = 3, read-out: MCF-10A IC50 ± SD
VEGFR-2 = molecular target: T1, VEGFR-2 (Homo sapiens, UniProt P35968); experiment: VEGFR-2 kinase inhibition, luminescent VEGFR2 (KDR) kinase assay kit (BPS Bioscience # 40325); assay type: biochemical
T1 construct: purchased BPS Bioscience 40325
T1 sequence (P35968 20-1356): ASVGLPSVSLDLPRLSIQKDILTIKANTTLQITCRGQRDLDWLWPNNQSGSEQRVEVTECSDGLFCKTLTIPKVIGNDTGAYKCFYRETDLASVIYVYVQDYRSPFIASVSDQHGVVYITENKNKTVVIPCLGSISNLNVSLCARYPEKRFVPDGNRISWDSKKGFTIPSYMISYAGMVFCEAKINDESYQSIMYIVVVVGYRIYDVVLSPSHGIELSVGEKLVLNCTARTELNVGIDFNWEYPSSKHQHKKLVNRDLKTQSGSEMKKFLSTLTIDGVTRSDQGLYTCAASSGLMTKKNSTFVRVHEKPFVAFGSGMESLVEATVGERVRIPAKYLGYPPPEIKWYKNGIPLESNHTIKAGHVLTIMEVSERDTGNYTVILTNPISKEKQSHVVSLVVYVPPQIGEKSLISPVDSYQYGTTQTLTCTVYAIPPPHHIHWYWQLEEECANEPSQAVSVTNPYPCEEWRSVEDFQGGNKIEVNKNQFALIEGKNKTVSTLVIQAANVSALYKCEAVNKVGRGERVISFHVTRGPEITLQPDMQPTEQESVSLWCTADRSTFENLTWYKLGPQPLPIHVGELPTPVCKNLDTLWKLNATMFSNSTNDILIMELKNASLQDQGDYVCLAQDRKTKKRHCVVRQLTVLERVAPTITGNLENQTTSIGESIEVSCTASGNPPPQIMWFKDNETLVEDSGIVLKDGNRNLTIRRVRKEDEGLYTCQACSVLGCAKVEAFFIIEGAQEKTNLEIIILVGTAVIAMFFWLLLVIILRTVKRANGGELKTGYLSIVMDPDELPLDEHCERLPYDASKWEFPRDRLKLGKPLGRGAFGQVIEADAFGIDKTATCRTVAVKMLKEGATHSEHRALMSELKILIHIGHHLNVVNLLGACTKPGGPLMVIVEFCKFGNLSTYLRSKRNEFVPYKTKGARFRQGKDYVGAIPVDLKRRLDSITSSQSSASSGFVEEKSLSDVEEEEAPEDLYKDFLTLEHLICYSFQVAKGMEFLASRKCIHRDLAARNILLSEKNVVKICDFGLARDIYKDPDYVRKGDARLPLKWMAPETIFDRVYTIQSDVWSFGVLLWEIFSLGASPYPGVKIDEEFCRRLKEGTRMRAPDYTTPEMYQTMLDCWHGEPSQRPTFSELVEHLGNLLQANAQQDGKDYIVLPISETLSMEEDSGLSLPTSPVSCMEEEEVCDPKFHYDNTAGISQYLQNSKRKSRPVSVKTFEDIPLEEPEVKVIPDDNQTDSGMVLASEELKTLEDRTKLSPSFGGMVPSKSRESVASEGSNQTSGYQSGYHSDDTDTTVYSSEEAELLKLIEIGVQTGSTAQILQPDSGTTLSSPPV
Protocol: Functionally, this pathway operates in autocrine and intracrine modes to promote cell proliferation, survival, and resistance to apoptosis through downstream effectors such as PI3K/AKT and p38 MAPK.
(§1) SIT, FLU and TNZ were tested using the five dose sigmoidal curves to determine the IC50 values. […] At the end of these experiment, anti-tumor potentiality was recorded using tumor weight (mg), tumor volume (mm^3), and the tumor inhibition ratio (TIR%). Hematological parameters of Hemoglobin (Hb, g/dL), RBC’s count (10^6/μL), and WBC’s count (10^3/μL) were investigated, along with histopathological and immunohistochemical staining of the VEGR2 protein.
Compounds Itraconazole. […] [12].

[1] = system: Solid Ehrlich Carcinoma (SEC); experiment: In vivo anti-tumor activity in solid Ehrlich carcinoma (SEC)-bearing mice (tumor mass, volume, TIR%, hematology, histopathology)
Protocol: All experimental protocols were approved by the Research Ethics Committee and Institutional Animal Care and Use Committee, Faculty of Science, Suez Canal University with the ethical code (SCU-Sci-REC439/2025), and all methods were carried out according to the European Union guidelines and in accordance with ARRIVE guidelines. All animals were anesthetized using a combination of Xylazine 10 mg/kg- Ketamine 100 mg/kg of body weight, respectively, prior sacrifice via cervical decapitation.
In all graphs, treatments were administrated intraperitoneal (IP) with 6 mg/Kg B.Wt. for two weeks, day after day.
as §1, with “values. They were tested for the VEGFR2 inhibition using VEGFR2 Kinase Inhibition Assay Kit Catalog # 40325 BPS Bioscience, San Diego, CA.” for “values.”
Adult female Swiss albino mice purchased from Faculty of Pharmacy, Suez Canal University, Ismailia, Egypt, with an average body weight of (18-23) g was used. Mice were housed under constant conditions of 12 h light/dark cycle in a […], with free access to standard laboratory mice food and water. All procedures related to care and maintenance of the animals were performed according to the international guiding principles for animal research and approved by the Faculty of Pharmacy, Suez Canal University bioethics and animal ethics committee.
Solid Ehrlich carcinoma (SEC) was got from the National Cancer Institute (Cairo University, Egypt). The tumor cell line proliferated in mice through serial intraperitoneal (I.P.) transplantation of a volume of 0.2 mL physiological saline containing 1×10^6 viable cells for 24 h. SEC cells were collected 7 days after I.P. implantation. The harvested cells were diluted with saline to obtain a concentration of 5×10^6 viable SEC cells/mL. A volume of 0.2 mL saline contains 1×10^6 SEC cells that were I.P. implanted into each normal mouse. SEC cells (1×10^6 tumor cells/mouse) were implanted subcutaneously into the right thigh of the hind limb.
The experimental animals were randomly divided into four groups. Group 1 served as the normal saline control. Group 2 served as the SEC control (1×10^6 cells/mouse). Group 3 served as the ITR-treated group (6 mg/kg B.Wt., I.P.). […] Body weight and survival were recorded daily until the 24th day in both treated and control groups. At the end of the experiment, anesthetized animals were then sacrificed for evaluation of the antitumor activity and histopathological examination.
It includes tumor volume, weight, and tumor inhibition ratio (TIR%). Time interval measurements of tumor volume using a digital Vernier caliper (Tricle Brand, Shanghai, China). Measure tumor length and width using a clipper and then calculate tumor volume using formulations V = (L x W x W)/2, where V is tumor volume, W is tumor width, L is tumor length. While TIR% was calculated according to the following equation Tumor volume Control-Tumor volume (treated)Tumor volume (control)x 100.
Specimens of liver-sacrificed mice were fixed in 10% saline formalin. The fixed liver specimens were Dehydrated in ascending series of ethyl alcohol and embedded in paraffin.

MCF-7 cells = experiment: Cytotoxicity against MCF-7 cells, MTT assay (single dose and five doses)

CCC(C)n1ncn(-c2ccc(N3CCN(c4ccc(OCC5COC(Cn6cncn6)(c6ccc(Cl)cc6Cl)O5)cc4)CC3)cc2)c1=O (stereo not shown) [Itraconazole, itraconazole]
IC50 (MCF-10A cells): 49.6 ± 2.5 µM | VEGFR-2 enzyme inhibition LogIC50 (Fig. 3) (VEGFR-2; dose-response curve fit, unit not given): 1.515 | IC50 (VEGFR-2; enzyme inhibition, dose-response, non-linear regression, read-out: VEGFR-2 inhibition IC50): 32.7 µM | solid tumor mass ([1]; 6 mg/Kg B.Wt. IP, two weeks, day after day, SEC control 469 mg): 237 mg | tumor volume ([1]; 6 mg/Kg B.Wt. IP, two weeks, day after day, SEC control 420 mm^3): 221 mm^3 | Tumor inhibition ratio (TIR%) ([1]; 6 mg/Kg B.Wt. IP, two weeks, day after day, TIR% = C − T/C × 100): 47.4% | WBC's count ([1]; 6 mg/Kg IP, normal 5, SEC control 9.2): 6.7 10^3/µL | RBC's count ([1]; 6 mg/Kg IP, normal 6.9, SEC control 3.1): 5.1 10^6/µL | Hemoglobin level ([1]; 6 mg/Kg IP, normal 11.6, SEC control 4.6): 6.8 g/dL | Tumor cell density (histopathology of SEC mass) ([1]; isolated tumor mass, SEC control 2.2 cm^2): 1.2 cm^2 | viability at 100 µg/mL (MCF-7 cells; Homo sapiens, MCF7, read-out: Average viability%): 69.5% | IC50 (MCF-7 cells; Homo sapiens, MCF7, read-out: MCF-7 IC50 ± SD, MCF-7, five dose concentrations, MTT, n = 3): 25.7 ± 0.9 µM | viability at 100 µg/mL (MCF-7 cells; Homo sapiens, MCF7, read-out: Viability (%) 1): 70.8% | viability at 100 µg/mL (MCF-7 cells; Homo sapiens, MCF7, read-out: Viability (%) 2): 70.1% | viability at 100 µg/mL (MCF-7 cells; Homo sapiens, MCF7, read-out: Viability (%) 3): 67.7% | Average OD (MCF-7 cells; MCF-7, single dose 100 μg/mL, MTT optical density, average of triplicates): 2.24 | OD1 (MCF-7 cells; MCF-7, single dose 100 μg/mL, MTT optical density, replicate 1): 2.28 | OD2 (MCF-7 cells; MCF-7, single dose 100 μg/mL, MTT optical density, replicate 2): 2.26 | OD3 (MCF-7 cells; MCF-7, single dose 100 μg/mL, MTT optical density, replicate 3): 2.18

Reference: article PMC12699035, “Exploring market-approved azoles as potential breast cancer therapeutics targeting the VEGFR-2 biotarget” (Scientific Reports, 2025)
